Assay results reported in publication PMC11866186, “Novel Benzimidazole–Oxadiazole Derivatives as Anticancer Agents with VEGFR2 Inhibitory Activity: Design, Synthesis, In Vitro Anticancer Evaluation, and In Silico Studies” (ACS Omega, 2025).
pIC50: −log10 of the molar value. Read-outs that look alike come from different tables or passages of the source.

Legend:
PANC-1 cell line = assay: MTT assay, PANC-1 cells; format: cell-based, human; settings: MTT, 24 h, read-out: IC50 against PANC-1
Experimental: Cisplatin was used as a reference drug. […] There are hydroxyl and methoxy substituents on the phenyl ring attached to the benzimidazole. It has also been derivatized using different groups on the phenyl ring close to oxadiazole.
(§1) Many analyses are performed to determine cell proliferation. MTT analysis is one of the viability determination tests. According to the working mechanism of the method, the dye containing the tetrazolium ring reacts with the dehydrogenase enzymes in the cells, only to be reduced and broken down by the metabolic cells, turning into water-insoluble formazan crystals. Color changes associated with mitochondrial activity and resulting from the addition of a solvent as a result of the reaction are measured in the microplate reader as optical density data values.[30] Cells were planted in flat-bottomed, 96-well, sterile, lidded, disposable microplates with 1 × 10^4 cells per well in 200 μL of appropriate medium and were allowed to adhere to the plate bottom by incubating for 24 h. At the end of 24 h, 100 μL of medium was withdrawn, and test substances at different concentrations, prepared in 100 μL, were added. Following the substance application, after a 24 h incubation period, 20 μL of stock MTT solution (MTT solution dissolved in 5 mg/mL PBS and filtered before application) was added to each well and protected from light, and the incubation continued for 3 h. Then, the media of the cells were completely withdrawn, and 100 μL of DMSO was added to dissolve the formazan crystals. After shaking in the dark for 15 min, the optical densities (absorbance) of the color changes at 540–570 and 650 nm reference wavelengths were read in the microplate reader. The data were calculated and created in Microsoft Office Excel. For this purpose, first, the blind well value and the control groups of colored substances were removed from the optical readings. The averages of optical densities and % viability values were made from Excel formula calculations, and the results were discussed. The viability of the control group was assumed to be 100%, and all other viability values were calculated based on this (series were run in n = 5 replicates).

CCD-19Lu cell line = assay: MTT assay, normal lung CCD-19Lu cells; format: cell-based; settings: normal human lung cells, 24 h, read-out: IC50 against CCD-19Lu
Experimental: (§2) By comparing the compounds’ cytotoxic effects against tumor cell lines and normal cell lines, the drug safety parameter for the anticancer activity of the compounds was evaluated, thereby confirming their cytoprotective qualities. In this study, normal human lung (CCD-19Lu) and normal human pancreas (hTERT-HPNE) cell lines were used as controls. The selectivity index (SI) calculated for the compounds tested scales the IC50 values of the compounds against various tumor cell lines with the IC50 values against normal cell lines (Table 2). […] The differential selectivity indices underscore the importance of targeted therapeutic strategies and the potential for these compounds to provide selective anticancer effects with reduced toxicity to normal cells.
as §1

hTERT-HPNE cell line = assay: MTT assay, normal pancreas hTERT-HPNE cells; format: cell-based; settings: normal human pancreas cells, 24 h, read-out: IC50 against hTERT-HPNE
Experimental: as §2, §1

MCF-7 cell line = assay: MTT assay, MCF-7 cells; format: cell-based, human; settings: read-out: IC50 against MCF-7
Experimental: (§3) The synthesized compounds 4a–4s were screened for their in vitro anticancer activity via the standard MTT assay using three human tumor cell lines, namely, the human lung adenocarcinoma cell line (A549), the human breast cancer cell line (MCF-7), and the human pancreas cell line (PANC-1). Cisplatin was used as a reference drug. […] When the structures of the compounds are evaluated, it is seen that the compounds are derived from two different sources. There are hydroxyl and methoxy substituents on the phenyl ring attached to the benzimidazole. It has also been derivatized using different groups on the phenyl ring close to oxadiazole. When the activities in the PANC-1 cell line are evaluated, it is seen that the activity of compounds bearing the 2,4-dichloro substituent is especially high.
as §1

A549 cell line = assay: MTT assay, A549 cells; format: cell-based, human; settings: MTT, 24 h, read-out: IC50 against A549
Experimental: as §3, §1

Row | Molecule | pIC50 (PANC-1 cell line; Homo sapiens, PANC-1, 24 h) | pIC50 (MCF-7 cell line; Homo sapiens, MCF7, 24 h) | pIC50 (A549 cell line; Homo sapiens, A549) | pIC50 (PANC-1 cell line) | pIC50 (MCF-7 cell line; 24 h) | pIC50 (A549 cell line) | pIC50 (CCD-19Lu cell line; CCD 19Lu) | pIC50 (hTERT-HPNE cell line) | pIC50 (CCD-19Lu cell line)
1 | COc1ccc(-c2nc3ccc(-c4nnc(SCC(=O)c5ccc(C#N)cc5)o4)cc3[nH]2)cc1 [4o, 2-((5-(2-(4-Methoxyphenyl)-1H-benzimidazol-6-yl)-1,3,4-oxadiazol-2-yl)thio)-1-(4-cyanophenyl)-ethanone] | 4.15 | 4.31 | 4.19 | – | – | – | 4.32 | 4.19 | –
2 | O=C(CSc1nnc(-c2ccc3nc(-c4ccc(O)cc4)[nH]c3c2)o1)c1ccccc1 [4a, 2-((5-(2-(4-Hydroxyphenyl)-1H-benzimidazol-6-yl)-1,3,4-oxadiazol-2-yl)thio)-1-phenyl-ethanone] | 4.37 | 4.40 | 4.20 | – | – | – | 4.34 | 4.58 | –
3 | COc1ccc(-c2nc3ccc(-c4nnc(SCC(=O)c5ccccc5)o4)cc3[nH]2)cc1 [4j, 2-((5-(2-(4-Methoxyphenyl)-1H-benzimidazol-6-yl)-1,3,4-oxadiazol-2-yl)thio)-1-phenyl-ethanone] | 4.02 | 4.27 | 4.00 | – | – | – | 4.02 | 4.03 | –
4 | COc1ccc(-c2nc3ccc(-c4nnc(SCC(=O)c5ccc(Cl)cc5)o4)cc3[nH]2)cc1 [4l, 2-((5-(2-(4-Methoxyphenyl)-1H-benzimidazol-6-yl)-1,3,4-oxadiazol-2-yl)thio)-1-(4-chlorophenyl)-ethanone] | 4.38 | 4.65 | 4.31 | – | – | – | 4.32 | 4.71 | –
5 | N#Cc1ccc(C(=O)CSc2nnc(-c3ccc4nc(-c5ccc(O)cc5)[nH]c4c3)o2)cc1 [4f, 2-((5-(2-(4-Hydroxyphenyl)-1H-benzimidazol-6-yl)-1,3,4-oxadiazol-2-yl)thio)-1-(4-cyanophenyl)-ethanone] | 4.22 | 4.34 | 4.29 | – | – | – | 4.16 | 4.13 | –
6 | 2-((5-(2-(4-Hydroxyphenyl)-1H-benzimidazol-6-yl)-1,3,4-oxadiazol-2-yl)thio)-1-(4-methylphenyl)-ethanone [4b] | – | – | – | 4.48 | 4.76 | 5.29 | – | 4.06 | 4.39
7 | O=C(CSc1nnc(-c2ccc3nc(-c4ccc(O)cc4)[nH]c3c2)o1)c1ccc(Br)cc1 [4e, 2-((5-(2-(4-Hydroxyphenyl)-1H-benzimidazol-6-yl)-1,3,4-oxadiazol-2-yl)thio)-1-(4-bromophenyl)-ethanone] | 4.08 | 4.02 | 4.02 | – | – | – | 4.02 | 4.95 | –
8 | 2-((5-(2-(4-Methoxyphenyl)-1H-benzimidazol-6-yl)-1,3,4-oxadiazol-2-yl)thio)-1-(4-methylphenyl)-ethanone [4k] | – | – | – | 4.09 | 4.30 | 4.13 | – | 4.53 | 4.04
9 | N.N.[Cl][Pt][Cl] [cisplatin, reference compound] | – | – | – | 4.54 | 4.83 | 4.71 | – | 4.51 | 4.65

More lines, in order of rising pIC50 (PANC-1 cell line; Homo sapiens, PANC-1, 24 h), values ahead:

Row | pIC50 (PANC-1 cell line; Homo sapiens, PANC-1, 24 h) | pIC50 (MCF-7 cell line; Homo sapiens, MCF7, 24 h) | pIC50 (A549 cell line; Homo sapiens, A549) | pIC50 (PANC-1 cell line) | pIC50 (MCF-7 cell line; 24 h) | pIC50 (A549 cell line) | Molecule | pIC50 (CCD-19Lu cell line; CCD 19Lu) | pIC50 (hTERT-HPNE cell line) | pIC50 (CCD-19Lu cell line)
10 | 4.39 | 4.43 | 4.60 | – | – | – | COc1ccc(-c2nc3ccc(-c4nnc(SCC(=O)c5ccc(F)cc5)o4)cc3[nH]2)cc1 [4m, 2-((5-(2-(4-Methoxyphenyl)-1H-benzimidazol-6-yl)-1,3,4-oxadiazol-2-yl)thio)-1-(4-florophenyl)-ethanone] | 4.69 | 4.54 | –
11 | 4.44 | 4.51 | 4.77 | – | – | – | O=C(CSc1nnc(-c2ccc3nc(-c4ccc(O)cc4)[nH]c3c2)o1)c1ccc(F)cc1F [4g, 2-((5-(2-(4-Hydroxyphenyl)-1H-benzimidazol-6-yl)-1,3,4-oxadiazol-2-yl)thio)-1-(2,4-diflorophenyl)-ethanone] | 4.50 | 4.77 | –
12 | 4.48 | 5.00 | 4.99 | – | – | – | O=C(CSc1nnc(-c2ccc3nc(-c4ccc(O)cc4)[nH]c3c2)o1)c1ccc(F)cc1 [4d, 2-((5-(2-(4-Hydroxyphenyl)-1H-benzimidazol-6-yl)-1,3,4-oxadiazol-2-yl)thio)-1-(4-florophenyl)-ethanone] | 5.28 | 5.17 | –
13 | 4.49 | 4.43 | 4.83 | – | – | – | COc1ccc(-c2nc3ccc(-c4nnc(SCC(=O)c5ccc(F)cc5F)o4)cc3[nH]2)cc1 [4p, 2-((5-(2-(4-Methoxyphenyl)-1H-benzimidazol-6-yl)-1,3,4-oxadiazol-2-yl)thio)-1-(2,4-diflorophenyl)-ethanone] | 4.83 | 4.69 | –
14 | 4.53 | 4.54 | 4.71 | – | – | – | COc1ccc(-c2nc3ccc(-c4nnc(SCC(=O)c5ccc(Br)cc5)o4)cc3[nH]2)cc1 [4n, 2-((5-(2-(4-Methoxyphenyl)-1H-benzimidazol-6-yl)-1,3,4-oxadiazol-2-yl)thio)-1-(4-bromophenyl)-ethanone] | 4.43 | 4.44 | –
15 | 4.57 | 4.80 | 4.84 | – | – | – | O=C(CSc1nnc(-c2ccc3nc(-c4ccc(O)cc4)[nH]c3c2)o1)c1ccc(Cl)cc1Cl [4h, 2-((5-(2-(4-Hydroxyphenyl)-1H-benzimidazol-6-yl)-1,3,4-oxadiazol-2-yl)thio)-1-(2,4-dichlorophenyl)-ethanone] | 4.52 | 4.48 | –
16 | 4.62 | 4.78 | 4.68 | – | – | – | O=C(CSc1nnc(-c2ccc3nc(-c4ccc(O)cc4)[nH]c3c2)o1)c1ccc(O)c(O)c1 [4i, 2-((5-(2-(4-Hydroxyphenyl)-1H-benzimidazol-6-yl)-1,3,4-oxadiazol-2-yl)thio)-1-(3,4-dihydroxyphenyl)-ethanone] | 4.86 | 5.00 | –
17 | 4.75 | 5.21 | 5.20 | – | – | – | O=C(CSc1nnc(-c2ccc3nc(-c4ccc(O)cc4)[nH]c3c2)o1)c1ccc(Cl)cc1 [4c, 2-((5-(2-(4-Hydroxyphenyl)-1H-benzimidazol-6-yl)-1,3,4-oxadiazol-2-yl)thio)-1-(4-chlorophenyl)-ethanone] | 4.79 | 4.67 | –
